“Also recorded” adds a separate entry of the source.

For one assay, the system named is H3K27me3 in MC3T3 cells. The experiment in a line: Western blotting for H3K27me3 in MC3T3 cells treated with EED inhibitor. Format: cell-based, murine. Conditions: A-395 at 0.02-10 mM as printed, FIG. 5A. On the procedure:
MC3T3 sc4 murine calvarial osteoblasts were purchased from American Type Culture Collection and maintained in α-minimal essential medium without ascorbic acid (Gibco) containing 10% fetal bovine serum (Atlanta Biologicals), 100 units/mL penicillin, and 100 µg/mL streptomycin (Gibco).
MC3T3 cells (4,000 cells/cm^2) were plated in 6-well plates in maintenance medium. […] Cells were lysed in radioimmunoprecipitation buffer (150 mm NaCl, 50 mm Tris, pH 7.4, 1% sodium deoxycholate, 0.1% sodium dodecyl sulfate, 1% Triton X-100) supplemented with protease inhibitor mixture (Sigma) and phenylmethylsulfonyl fluoride (Sigma). Lysates were cleared by centrifugation. Protein concentrations were determined by the DC Protein Assay (Bio-Rad). Proteins were resolved by SDS-PAGE and transferred to polyvinylidene difluoride membranes. After blocking in 5% nonfat dry milk for 45 minutes at room temperature, primary antibodies were added overnight at 4° C., followed by secondary antibodies for 1 hour at room temperature. Proteins were visualized using an ECL Prime detection kit.
On the technique in general: Immunoblotting shows a protein as a band on a membrane.

Assay [1] relates to G610C mice. As to the kind of experiment: μCT analysis of G610C mice treated with MAK683 for 3 weeks (three mice). The format is in vivo. The following applies: for bone density / trabecular structure: G610C mice, vs vehicle treated control; for bone parameters (μCT) vs controls: male G610C mice, 3 weeks. How it is done:
To determine if MAK683 improved bone formation in OI, three 5-week-old male G610C mice were injected SQ with 50 mg/kg MAK683 twice a week for 3 weeks.

The subject of a further assay is OVX mice. As to the kind of experiment: μCT analysis of OVX mice treated with MAK683. Format: in vivo, C57BL/6 female mice. On the procedure:
To assess whether EED inhibition could rescue low bone mass due to osteoporosis, ovariectomy (OVX) or sham (Sham) surgery on was performed 15-week-old C57BL/6 female mice with 6 animals per group. On the day of surgery, all mice were imaged using a PIXImus densitometer to measure bone density prior to OVX. Mice were allowed 7 days to recover. Mice in each group were randomized to EED inhibitor treatment or control. These groups were sham/vehicle (Sh−), sham/EED (SH+), OVX/vehicle (OV−), and OVX/EED (OV+). Again, each mouse was imaged to determine bone density after OVX prior to EED treatment. Mice were then injected with vehicle control or 20 mg/kg MAK683 SQ twice weekly for 3 weeks.

Assay [2] deals with G610C mice. As to the kind of experiment: μCT analysis of large cohort of G610C mice treated with MAK683. The format is in vivo. The following applies: for bone density (μCT) / trabecular structure: G610C mice; for bone density (μCT): 3 weeks, 9 mice per group; for trabecular structure: vs vehicle treated control; for bone quality parameters: OI mice. How it is done: One day prior to treatment 5-week-old male G610C mice were weighed to determine dosing. MAK683 was dissolved in DMSO for each treatment arm of 5, 10, 20, or 50 mg/kg for selected mice. The volume was adjusted to […] for injection using corn oil. Mice were injected subcutaneously twice weekly for 3 weeks. After 3 weeks, mice were euthanized, and bone was harvested.
To further examine if different doses of MAK683 improved bone formation in 01, SQ nine 5-week-old male G610C mice were injected with 50, 20, 10, or 5 mg/kg MAK683 twice a week for 3 weeks.

Setting [3] is: 20 mg/kg, vs OVX vehicle treated control.

For the compound `CS(=O)(=O)c1ccc(-c2cnc(NCc3ccco3)n3cnnc23)cc1` [EED226, n-(2-furanylmethyl)-8-[4-(methylsulfonyl)phenyl]-1,2,4-triazolo[4,3-c]pyrimidin-5-amine], in the assay on H3K27me3 in MC3T3 cells, the “H3K27me3 (western blotting)” value is “reduced H3K27me3 in a concentration-dependent manner”.
Turning to `Cc1ncccc1-c1cnc(NCc2c(F)ccc3c2CCO3)n2cnnc12` [MAK683, N-[(5-fluoro-2,3-dihydro-1-benzofuran-4-yl)methyl]-8-(2-methylpyridin-3-yl)-[1,2,4]triazolo[4,3-c]pyrimidin-5-amine], the figures for the bone density entry in the assay on G610C mice [1] (20 mg/kg), in the assay with G610C mice [1] (50 mg/kg) and with OVX mice (setting [3]) were “significant increase”, “significant increase” and “significant intention”, respectively. The trabecular structure entry in the assay with G610C mice [1] (20 mg/kg), in the assay on G610C mice [1] (50 mg/kg), in the assay with G610C mice [2] (10 mg/kg) and in the assay with G610C mice [2] (20 mg/kg) was “significant increase” in each case. Also, the “bone parameters (μCT) vs controls” value was “improvement in essentially all bone parameters” in the assay on G610C mice [1] (20 mg/kg SQ twice a week); “improvement in many bone parameters” with G610C mice [1] (50 mg/kg SQ twice a week); “improvement in many bone parameters” in the assay on G610C mice [2] (G610C mice, 50, 20, 10, or 5 mg/kg, FIG. 17B-M). Moreover, the “bone loss (μCT)” value in the assay on OVX mice (20 mg/kg SQ twice weekly, 3 weeks) is recorded as “prevented bone loss”. Moreover, the trabecular number result in the assay with OVX mice (setting [3]) is on record as “significant intention”. For the same compound, the “bone density (μCT)” value was “possible minor improvement” with G610C mice [2] (5 mg/kg SQ twice a week); “visual improvement; also recorded: significant increase” in the assay with G610C mice [2] (10 mg/kg SQ twice a week, 10 mg/kg); “visual improvement; also recorded: significant increase” in the assay on G610C mice [2] (20 mg/kg SQ twice a week, 20 mg/kg); “possible minor improvement” with G610C mice [2] (50 mg/kg SQ twice a week). The bone quality parameters entry in the assay with G610C mice [2] (5 mg/kg) and in the assay with G610C mice [2] (50 mg/kg) was “trend in increased” each time.

The values are drawn from patent publication US20260248794A1, “METHODS AND MATERIALS FOR PROMOTING BONE GROWTH” (Mayo Foundation for Medical Education and Research, priority 2022, published 2026).
